Experimental data: patent US9566363B2, “Microbicidal composite material” (priority 2013, dated 2017)
Read-outs that look alike come from different tables or passages of the source.

Tests used:
Type in all cases: cell-based
[1] = test system: P. aeruginosa (ATCC 9027); experiment: Rate of microbicidal effect upon contact (CFU enumeration over time); settings: Pseudomonas aeruginosa, 15 mm disc in approximately 10^8 CFU/ml, ciprofloxacin 1 μg/disc, read-out: killing percentage (inhibition of growth as percentage)
Protocol: (§1) Briefly, 15 millimeter (mm) discs of the microbicidal composite material were cut and placed into 24 well plates containing approximately 10^8 CFU/ml in Nutrient broth of S. aureus (ATCC 25923) & P. aeruginosa (ATCC 9027) respectively and incubated at 37±1° C. At intervals of 1, 5, 15, 30 and 60 minutes, broth samples were drawn and plated on nutrient agar plates and incubated for 24 hours at 37±1° C. for CFU enumeration. Two reference standards (ref-1, and ref-2) [Ref-1: Reference standard-I, includes a test material which is a cotton gauze material bonded with non siloxane based QAS and Ref-2: Reference standard-II includes a test material with active ingredient as silver Test Item refers to the ‘Microbicidal Composite Material’] and a disc containing 1 μg/disc ciprofloxacin. The results are tabulated in table 8 and table 9 as percentage recovery over time. Percentage survival was calculated as number of CFU/ml in test substance/number of CFU/ml in control substance. The killing percentage was calculated as 100-residual percentage.
(§2) FIG. 4 and FIG. 5 show the inhibition of growth as percentage in the Y-axis compared to the untreated control group.

S. aureus (ATCC 25923) [2] = experiment: as above; settings: Staphylococcus aureus, 15 mm disc in approximately 10^8 CFU/ml, ciprofloxacin 1 μg/disc, read-out: killing percentage (inhibition of growth as percentage)
Protocol: as §1, §2

S. aureus [3] = experiment: Bio film disruption assay (crystal violet, OD 570 nm); settings: Staphylococcus aureus, overnight grown culture, 24 hours, 15 mm disc, Ciprofloxacin 1 ug/ml, read-out: % Inhibition, Percentage Effect in Bio film disruption assay
Protocol: (§3) 15 millimeters (mm) Discs of the microbicidal composite material were cut and placed into 24 well plates containing approximately 10^8 CFU/ml in Tryptic Soy Broth (TSB) of P. aeruginosa and S. aureus respectively and incubated at 37±1° C. for the Bio film Prevention assay. Similarly, 15 millimeter (mm) Discs of the microbicidal composite material were cut and placed into 24 well plates containing overnight grown culture of P. aeruginosa and S. aureus respectively in TSB and further incubated for 24 hours at 37±1° C. for the disruption assay.
(§4) Further, plain filter paper discs were placed in culture control (C) wells with approximately 10^8 CFU/ml of the above bacteria in Tryptic Soy Broth (TSB) for both the Prevention and Disruption assay. After incubation, the contents were removed and washed four times with Phosphate Buffer saline (pH 7.2). A 500 μl of 0.1% crystal violet stain was added to each well and incubated for 20 minutes at room temperature, washed, and dried. Subsequently, 500 μl of ethanol supplemented with 2% acetic acid was added to each well for 30 min. The Optical Density (OD) of stained adherent Bio film was obtained by using a Tecan plate reader at 570 nm wavelength. Percentage inhibitions in the respective assays were calculated in comparison to the control.

P. aeruginosa [4] = experiment: as above; settings: Pseudomonas aeruginosa, overnight grown culture, 24 hours, 15 mm disc, Ciprofloxacin 1 ug/ml, read-out: % Inhibition, Percentage Effect in Bio film disruption assay
Protocol: as §3, §4

S. aureus [5] = experiment: Residual microbes on ZOI disc after transfer to Nutrient broth
Protocol: (§5) After 24 hours, the discs were transferred to Nutrient broth which was then incubated at 37±1° C. for another 24 hours. The broth contents were placed on Nutrient agar plates to measure the residual percentage of microbes present on the disc as a result of remaining on a lawn of bacteria overnight. Percentage survival was calculated as [number of CFU/ml in test substance/number of CFU/ml in control substance]. The killing percentage was calculated as 100-residual percentage. The results are tabulates as under Table-6.

E. coli = experiment: as above
Protocol: as §5

C. albicans = experiment: as above
Protocol: as §5

P. aeruginosa [6] = experiment: as above
Protocol: as §5

E. coli (ATCC25922) = experiment: Zone of inhibition study (disc on agar plate); settings: radius around 12 mm disc, 24 hours at 37±1° C., triplicates, Ciprofloxacin 1 μg/Disc
Protocol: (§6) The microbicidal composite material was tested in triplicates against E. coli (ATCC25922), S. aureus (ATCC 25923), P. aeruginosa (ATCC 9027) and C. albicans (ATCC 90028). The test material was cut as a 12 mm diameter disc and placed on 90 mm agar plates spread with 100 μl of approximately 10^8 CFU/ml of each bacterial strain and incubated at 37±1° C. for 24 hours. For a negative control, a filter paper disc containing no antibiotic was used. The zone of inhibition (Radius in mm) around the discs was measured using a transparent ruler. The results of this test are tabulated as under Table-5.

[7] = test system: P. aeruginosa (ATCC 9027); experiment: Zone of inhibition study (disc on agar plate); settings: radius around 12 mm disc, 24 hours at 37±1° C., triplicates
Protocol: as §6

S. aureus (ATCC 25923) [8] = experiment: Zone of inhibition study (disc on agar plate); settings: radius around 12 mm disc, 24 hours at 37±1° C., triplicates
Protocol: as §6

S. aureus [9] = experiment: Bio film prevention assay (crystal violet, OD 570 nm); settings: Staphylococcus aureus, 15 mm disc, Ciprofloxacin 1 ug/ml, versus control, read-out: % Inhibition, Percentage Effect in Bio film prevention assay
Protocol: as §3, §4

P. aeruginosa [10] = experiment: as above; settings: Pseudomonas aeruginosa, 15 mm disc, Ciprofloxacin 1 ug/ml, versus control, read-out: % Inhibition, Percentage Effect in Bio film prevention assay
Protocol: as §3, §4

C. albicans (ATCC 90028) = experiment: Zone of inhibition study (disc on agar plate); settings: radius around 12 mm disc, 24 hours at 37±1° C., triplicates, Flucanazole 25 μg/Disc
Protocol: as §6

[11] = disc from ZOI assay in Nutrient broth for another 24 hours, CFU/ml versus control

O=C(O)c1cn(C2CC2)c2cc(N3CCNCC3)c(F)cc2c1=O [Ciprofloxacin]
inhibition at 1 µg/disc ([1]; ATCC9027, 1 min, 1 minute): 0% | inhibition at 1 µg/disc ([1]; ATCC9027, 5 min, 5 minutes): 32.4% | inhibition at 1 µg/disc ([1]; ATCC9027, 0.25 h, 15 minutes): 87.4% | inhibition at 1 µg/disc ([1]; ATCC9027, 0.5 h, 30 minutes): 98% | inhibition at 1 µg/disc ([1]; ATCC9027, 1 h, 60 minutes): 99.9% | inhibition at 1 µg/disc (S. aureus (ATCC 25923) [2]; ATCC25923, 1 min, 1 minute): 0% | inhibition at 1 µg/disc (S. aureus (ATCC 25923) [2]; ATCC25923, 5 min, 5 minutes): 32% | inhibition at 1 µg/disc (S. aureus (ATCC 25923) [2]; ATCC25923, 0.25 h, 15 minutes): 86.2% | inhibition at 1 µg/disc (S. aureus (ATCC 25923) [2]; ATCC25923, 0.5 h, 30 minutes): 79.1% | inhibition at 1 µg/disc (S. aureus (ATCC 25923) [2]; ATCC25923, 1 h, 60 minutes): 98.8% | inhibition at 1 µg/mL (S. aureus [3]): 88.2% | inhibition at 1 µg/mL (P. aeruginosa [4]): 91.4% | Killing % (S. aureus [5]; 100-residual percentage): 99.9921% | Residual % (S. aureus [5]; [11]): 0.008% | Killing % (E. coli; 100-residual percentage): 99.9997% | Residual % (E. coli; [11]): 0.000% | Killing % (C. albicans; 100-residual percentage): 99.9902% | Residual % (C. albicans; [11]): 0.010% | Killing % (P. aeruginosa [6]; 100-residual percentage): 99.9994% | Residual % (P. aeruginosa [6]; [11]): 0.001% | ZOI (in mm) Mean (E. coli (ATCC25922)): 11.00 mm | ZOI (in mm) Mean [7]: 9.50 mm | ZOI (in mm) Mean (S. aureus (ATCC 25923) [8]): 11.55 mm | inhibition at 1 µg/mL (S. aureus [9]): 93.1% | inhibition at 1 µg/mL (P. aeruginosa [10]): 89.8%

OC(Cn1cncn1)(Cn1cncn1)c1ccc(F)cc1F [Flucanazole]
ZOI (in mm) Mean (C. albicans (ATCC 90028)): 3.60 mm
